{"source": "patent US12325862B2", "about": "“Compositions and methods for transgenic crops resistant to thaxtomins” (University of Florida Research Foundation, Inc., priority 2019, dated 2025)", "molecules": {"B1": {"name": "NfsB: nitroreductase from Haemophilus influenzae (SEQ ID NO: 4), recombinant with C-terminal His6 tag (protein, listed as Haemophilus influenzae)", "chain": "MTQLTREQVLELFHQRSSTRYYDPTKKISDEDFECILECGRLSPSSVGSEPWKFLVIQNKTLREKMKPFSWGMINQLDNCSHLVVILAKKNARYDSPFFVDVMARKGLNAEQQQAALTKYKALQEEDMKLLENDRTLFDWCSKQTYIALANMLTGASALGIDSCPIEGFHYDKMNECLAEEGLFDPQEYAVSVAATFGYRSRDIAKKSRKGLDEVVKWVG", "modifications": "C-terminal His6 tag"}}, "key": {"radish seedlings": {"tested_on": "radish seedlings", "test": "Radish seedling assay", "assay_type": "in vivo", "conditions": "for growth of radish seedlings on agar plate: after seven days, compared with negative control DMSO", "description": "Serial concentrations of thaxtomins in DMSO were added into 20 mL of 1.5% warm agar solution with gentle agitation to the final concentrations range from 0 to 2 μM. DMSO was included as a negative control. The solution was then poured into the plate for solidification at room temperature for 30 min. Radish seeds (W. Atlee Burpee & Co., Warminster Township, Pennsylvania) were surface disinfested, pregerminated, and selected when the radicle was […] and just emerged from the seed coat. Six radish seedlings were equally located on the surface of each plate with the root ends all pointed in the same direction. Agar plates were covered and sealed with Parafilm®. The seedlings in the agar plates grew at room temperature under fluorescent lighting (12 h per day for 7 days), and then the seedling with average size of all seedlings in the same plate was selected for comparison.\nA radish seedling assay was carried out to investigate the herbicidal activity of serial concentrations of 4-amino thaxtomin A (compound 5). The assay also included DMSO as negative control and thaxtomin A (1) as positive control. […] The diminished herbicidal activity is caused by the transformation of the nitro group of thaxtomin A (1) into the amine group."}, "[1]": {"test": "NfsB enzymatic reaction, conditions optimized with thaxtomin A as substrate", "assay_type": "biochemical", "description": "Enzymatic reaction conditions were optimized with thaxtomin A as substrate. […] When coupled with a glucose dehydrogenase (GDH)- or phosphite dehydrogenase (PTDH)-based NADPH regeneration system, the enzyme at 10 μM achieved greater than 90% conversion of thaxtomin A (2 mM) at 37° C. in 8 hours. […] In addition, a crude extract of engineered thaxtomin producing strain Streptomyces albus-thx2 was prepared; the extract contained about 69% thaxtomin A based on HPLC analysis."}}, "data": [{"molecule": "CN1C(=O)[C@](O)(Cc2cccc(O)c2)N(C)C(=O)[C@@H]1Cc1c[nH]c2cccc([N+](=O)[O-])c12", "note": "[thaxtomin A, reference compound]", "values": [{"measurement": "growth of radish seedlings on agar plate", "setting": "radish seedlings; 2.0 μM", "result": "significantly inhibited"}]}, {"molecule": "CN1C(=O)[C@](O)(Cc2cccc(O)c2)N(C)C(=O)[C@@H]1Cc1c[nH]c2cccc(N)c12", "note": "[compound 5, 4-amino thaxtomin A]", "values": [{"measurement": "growth of radish seedlings on agar plate", "setting": "radish seedlings; 0.05 μM", "result": "the same as the negative control DMSO"}, {"measurement": "growth of radish seedlings on agar plate", "setting": "radish seedlings; 2.0 μM", "result": "the same as the negative control DMSO"}, {"measurement": "herbicidal activity to radish seedlings", "setting": "radish seedlings; overall conclusion, 0.05 μM and 2.0 μM", "result": "minimal to no herbicidal activity"}]}, {"molecule": "B1", "values": [{"measurement": "conversion of thaxtomin A (1) in crude extract into compound 5", "setting": "[1]; crude extract of Streptomyces albus-thx2, about 69% thaxtomin A", "result": "completely converted"}, {"measurement": "conversion of thaxtomin A", "setting": "[1]; enzyme 10 μM, thaxtomin A 2 mM, 37° C., 8 hours, GDH- or PTDH-based NADPH regeneration system", "result": "greater than 90%"}, {"measurement": "temperature of highest enzyme activity", "setting": "[1]; thaxtomin A as substrate", "result": 37, "unit": "°C"}]}]}
